Like-named read-outs stand apart in the source and are kept apart here.
Assays:
Assay type in all cases: in vivo
Quackgrass = assay: Greenhouse pre-emergence GR15/GR85 selectivity test
Yellow Nutsedge = assay: as above
cotton = assay: as above; conditions: Table XII
From the text: A good grade of top soil is placed in aluminum pans and compacted to a depth of three-eighths to one-half inch from the top of the pan. On the top of the soil is placed a number of seeds or vegetative propagules of various plant species. The soil required to level fill the pans after seeding or adding vegetative propagules is weighed into a pan. The soil and a known amount of the active ingredient applied in a solvent or as a wettable powder suspension are thoroughly mixed, and used to cover the prepared pans. After treatment, the pans are given an initial overhead irrigation of eater, equivalent to one-fourth inch (0.64 cm) rainfall, then watered by subirrigation as need to give adequate moisture for germination and growth. As an alternative procedure, the overhead irrigation may be omitted. Observations are made about 2-3 weeks after seeding and treatment.
In the discussion and tables of data below, reference is made to herbicide application rates symbolized as "GR15 " and "GR85 "; these rates are given in kilograms per hectare (kg/ha) which are convertible into pounds per acre (lbs/A) by dividing the kg/ha rate by 1.12.
A further guide to the effectiveness of a chemical as a selective herbicide is the "selectivity factor" ("SF") for a herbicide in given crops and weeds. The selectivity factor is a measure of the relative degree of crop safety and weed injury and is expressed in terms of the GR15 /GR85 ratio, i.e., the GR15 rate for the crop divided by the GR85 rate for the weed, both rates in kg/ha (lb/A). In the tables below, selectivity factors are shown in parenthesis following the GR85 rate for each weed; the symbol "NS" indicates "non-selective". Marginal or undetermined selectivity is indicated by a dash (--).
Additionally, pre-emergence herbicidal data from other tests have established that compounds according to this invention also selectively suppress quackgrass, yellow nutsedge and/or other weeds in one or more of the crops cotton, peanuts, bush beans and/or rape. For example, in Table VI are presented data showing the herbicidal selectivity of the compounds of Examples 1 and 2 against quackgrass in rape and snap beans. Unless otherwise noted; greenhouse tests in Table VI and in other tables below involved herbicide treatments by soil incorporation and an initial overhead irrigation followed by subirrigation as described above.
In one multi-crop test in the greenhouse, the compounds of Examples 1, 9, and 10 were tested against yellow nutsedge in cotton, soybeans, corn and rice; each compound was non-selective with respect to yellow nutsedge in rice. However, markedly high selectivities for yellow nutsedge in cotton, soybeans and corn were shown for each of the compounds in the test; the respective GR15 and GR85 rates for these compounds are shown in Table XII selectivity factors are shown in parenthesis after each crop.

common ragweed = assay: as above; conditions: Table XV
Outline: (§1)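 Pre-emergence soil-incorporation test: seeded pans were covered with topsoil mixed with active ingredient (in solvent or as wettable powder), overhead-irrigated (0.64 cm) or not, then subirrigated. Plants were scored about 2-3 weeks after treatment. GR15/GR85 rates are in kg/ha, and selectivity factor is crop GR15 divided by weed GR85.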

common purslane = assay: as above; conditions: Table XV
Outline: as §1

prickly sida = assay: as above; conditions: Table XV
Outline: as §1

Barnyardgrass = assay: Resistance to leaching and resulting herbicidal efficacy; conditions: Echinochloa crus-galli, read-out: Percent Inhibition; for inhibition at 140 g/ha: 0.14 Kg/Ha; for inhibition at 560 g/ha: 0.56 Kg/Ha; for inhibition at 2200 g/ha: 2.2 Kg/Ha
Outline: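 Treated soil in pots leached under simulated rainfall (one inch (2.5 cm) water per hour, duration varied), held three days at ambient temperature, then laid as surface layer over barnyardgrass-seeded pots. After 2-3 weeks in greenhouse, visual percent growth inhibition versus untreated controls and fresh weights recorded; three replications per compound.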

[1] = Drummer silt clay, rain 1.27 cm
[2] = Drummer silt clay, rain 5.08 cm
[3] = Drummer silt clay, rain 10.16 cm

## CCCOCN(C(=O)CCl)c1c(CC)cccc1C(F)(F)F [Example 10, N--(n-propoxymethyl)-2'-trifluoromethyl-6'-ethyl-2-chloroacetanilide]
Quackgrass; Table XIII
  GR85: 0.45 Kg/Ha
Quackgrass; in wheat
  selectivity against quackgrass in wheat: non-selective
Quackgrass; quackgrass in corn, Table XIII
  selectivity factor (GR15/GR85): 5.6
Quackgrass; quackgrass in soybeans, Table XIII
  selectivity factor (GR15/GR85): 3.3
Yellow Nutsedge; Table XII
  GR85: 0.38 Kg/Ha
Yellow Nutsedge; in rice
  selectivity with respect to yellow nutsedge in rice: non-selective
Yellow Nutsedge; yellow nutsedge in corn, Table XII
  selectivity factor (GR15/GR85): 4.5
Yellow Nutsedge; yellow nutsedge in cotton, Table XII
  selectivity factor (GR15/GR85): 7.4
Yellow Nutsedge; yellow nutsedge in soybeans, Table XII
  selectivity factor (GR15/GR85): 5.8
cotton
  GR15: 2.8 Kg/Ha
Common ragweed
  GR85 Rate: > 1.12 Kg/Ha
Common purslane
  GR85 Rate: > 1.12 Kg/Ha
Prickly sida
  GR85 Rate: > 1.12 Kg/Ha
Barnyardgrass; Drummer silt clay, rain 0 cm
  inhibition at 140 g/ha: 90%
  inhibition at 560 g/ha: 99%
  inhibition at 2200 g/ha: 100%
Barnyardgrass; [1]
  inhibition at 140 g/ha: 85%
  inhibition at 560 g/ha: 98%
  inhibition at 2200 g/ha: 100%
Barnyardgrass; [2]
  inhibition at 140 g/ha: 80%
  inhibition at 560 g/ha: 98%
  inhibition at 2200 g/ha: 99%
Barnyardgrass; [3]
  inhibition at 140 g/ha: 70%
  inhibition at 560 g/ha: 98%
  inhibition at 2200 g/ha: 98%
Barnyardgrass; Ray silt loam, rain 0 cm
  inhibition at 140 g/ha: 100%
  inhibition at 560 g/ha: 100%
Barnyardgrass; Ray silt loam, rain 1.27 cm
  inhibition at 140 g/ha: 100%
  inhibition at 560 g/ha: 100%
  inhibition at 2200 g/ha: 100%
Barnyardgrass; Ray silt loam, rain 5.08 cm
  inhibition at 140 g/ha: 98%
  inhibition at 560 g/ha: 100%
  inhibition at 2200 g/ha: 100%
Barnyardgrass; Ray silt loam, rain 10.16 cm
  inhibition at 560 g/ha: 90%
  inhibition at 2200 g/ha: 98%
  inhibition at 140 g/ha: 65%
